Test results from article PMC10763615, “Identification and engineering of potent cyclic peptides with selective or promiscuous binding through biochemical profiling and bioinformatic data analysis” (RSC Chemical Biology, 2023).

Experiments:
FGF-R1C ECD = target: T1, FGF-R1C ECD (Homo sapiens, UniProt P11362); assay: biochemical
T1 sequence (P11362 22-376 limits assumed): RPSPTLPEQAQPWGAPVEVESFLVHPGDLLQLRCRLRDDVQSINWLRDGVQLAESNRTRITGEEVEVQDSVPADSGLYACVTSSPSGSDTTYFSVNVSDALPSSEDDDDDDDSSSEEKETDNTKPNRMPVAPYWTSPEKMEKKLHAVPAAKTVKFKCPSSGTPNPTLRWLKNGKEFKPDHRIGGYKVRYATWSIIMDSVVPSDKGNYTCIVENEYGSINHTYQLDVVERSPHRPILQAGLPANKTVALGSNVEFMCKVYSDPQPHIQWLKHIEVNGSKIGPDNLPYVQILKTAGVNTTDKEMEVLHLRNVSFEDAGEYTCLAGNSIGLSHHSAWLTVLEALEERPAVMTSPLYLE
Description: (§1) KD affinity binding measurements were obtained by biolayer interferometry (BLI) instruments (Fortebio Octet HTX, or Sartorius Octet RH16 using either 8 or 16 channel mode.
(§2) For single concentration binding experiments, 50 μM peptide stocks in folding buffer were diluted 1:50 in mRNA display selection buffer (PBS pH7.4 supplemented with 0.05% Tween-20 and 0.01% BSA) in either a 96 well black plate, or a 384 well tilted bottom microplate (ForteBio). Biotinylated FGF-R protein was loaded onto Streptavidin-functionalised biosensors (ForteBio) and immersed into ~1 μM peptide to obtain association kinetics curves. Dissociation kinetics curves were obtained by subsequent immersion of ligand-associated loaded sensors into a 1:50 dilution of folding buffer in mRNA display selection buffer. Fitted KD data was adjusted for concentration as determined by UPLC-CAD.
(§3) For accurate multi-concentration KD determination, dilution series of each peptide were made, and association and dissociation kinetics curves were obtained as above for each concentration to fit a multi-point KD binding model. Data collection and analysis was performed using the Octet Instrument Control […]
(§4) concentration assay kinetics curves shown in supplementary Figure S 19-24.

FGF-R3C ECD = target: T2, FGF-R3C ECD (Homo sapiens, UniProt P22607); assay: biochemical
T2 sequence (P22607 23-375 limits assumed): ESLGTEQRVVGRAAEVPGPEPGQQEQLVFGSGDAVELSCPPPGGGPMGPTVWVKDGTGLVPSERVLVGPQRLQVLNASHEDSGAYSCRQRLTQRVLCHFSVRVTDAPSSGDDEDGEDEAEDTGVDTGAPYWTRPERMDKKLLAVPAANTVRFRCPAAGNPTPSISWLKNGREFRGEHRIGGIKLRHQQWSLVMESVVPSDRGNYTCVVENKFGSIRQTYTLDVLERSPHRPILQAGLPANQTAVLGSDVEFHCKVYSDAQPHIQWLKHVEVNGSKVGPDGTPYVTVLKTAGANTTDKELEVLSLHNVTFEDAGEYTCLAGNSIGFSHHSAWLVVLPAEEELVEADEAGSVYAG
Description: as §1, §2, §3, §4

FGF-R4 ECD = target: T3, FGF-R4 ECD (Homo sapiens, UniProt P22455); assay: multi-concentration BLI of purified peptides; format: binding; conditions: purified trimer-18 library peptides
T3 construct: DNA constructs for the extracellular domain (ECD) of human FGF-; HPC4 (C); made in house; host or cells: HEK 293-6E
T3 sequence (P22455 22-369 limits assumed): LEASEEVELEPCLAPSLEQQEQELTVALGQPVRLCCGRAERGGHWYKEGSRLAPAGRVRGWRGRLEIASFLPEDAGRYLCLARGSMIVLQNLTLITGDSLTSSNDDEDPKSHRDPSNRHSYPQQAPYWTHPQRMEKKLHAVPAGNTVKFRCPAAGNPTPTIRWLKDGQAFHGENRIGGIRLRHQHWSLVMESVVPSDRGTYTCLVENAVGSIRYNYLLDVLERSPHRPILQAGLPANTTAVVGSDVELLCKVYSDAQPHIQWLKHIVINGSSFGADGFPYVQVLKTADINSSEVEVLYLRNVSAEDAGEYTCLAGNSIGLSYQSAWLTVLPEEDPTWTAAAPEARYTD
Description: as §1, §2, §3, §4

| Structure (SMILES) | Kd (FGF-R1C ECD) [µM] | Kd (FGF-R3C ECD) [µM] | Kd (FGF-R4 ECD) [µM] | R4 KD (nM) (FGF-R4 ECD) |
| --- | --- | --- | --- | --- |
| CC[C@H](C)[C@@H]1NC(=O)[C@H](Cc2ccccc2)NC(=O)[C@H](CCCCN)NC(=O)[C@H](CC(N)=O)NC(=O)[C@H](Cc2ccc(O)cc2)NC(=O)[C@@H](NC(=O)[C@H](CCSC)NC(C)=O)CSSC[C@@H](C(=O)NCC(=O)N[C@@H](CO)C(=O)NCC(=O)N[C@@H](CO)C(=O)N[C@@H](CC(=O)O)C(=O)N[C@@H](Cc2ccc(O)cc2)C(=O)N[C@@H](CCCCN)C(=O)N[C@@H](CC(=O)O)C(=O)N[C@@H](CC(=O)O)C(=O)N[C@@H](CC(=O)O)C(=O)N[C@@H](CC(=O)O)C(=O)N[C@@H](CCCCN)C(N)=O)NC(=O)[C@H](Cc2ccc(O)cc2)NC(=O)[C@H](CC(C)C)NC(=O)[C@H](C(C)C)NC(=O)[C@H](CCCCN)NC(=O)[C@H](Cc2ccc(O)cc2)NC(=O)[C@H](CC(C)C)NC(=O)[C@H]([C@@H](C)O)NC1=O [4.19] | > 1 | > 1 | 0.79 |  |
| CSCC[C@H](NC(C)=O)C(=O)N[C@H]1CSSC[C@@H](C(=O)NCC(=O)N[C@@H](CO)C(=O)NCC(=O)N[C@@H](CO)C(=O)N[C@@H](CC(=O)O)C(=O)N[C@@H](Cc2ccc(O)cc2)C(=O)N[C@@H](CCCCN)C(=O)N[C@@H](CC(=O)O)C(=O)N[C@@H](CC(=O)O)C(=O)N[C@@H](CC(=O)O)C(=O)N[C@@H](CC(=O)O)C(=O)N[C@@H](CCCCN)C(N)=O)NC(=O)[C@H](Cc2c[nH]c3ccccc23)NC(=O)[C@H](CC(C)C)NC(=O)[C@H](CC(C)C)NC(=O)[C@H](Cc2ccc(O)cc2)NC(=O)[C@H](Cc2ccc(O)cc2)NC(=O)[C@H](Cc2ccccc2)NC(=O)[C@H](CC(C)C)NC(=O)[C@H](C(C)C)NC(=O)[C@H](CCCCN)NC(=O)[C@H](CCCCN)NC(=O)[C@H](CC(N)=O)NC(=O)[C@H](CCC(=O)O)NC1=O [4.20] | > 1 | > 1 | 0.321 |  |
| CC[C@H](C)[C@@H]1NC(=O)[C@H](Cc2c[nH]c3ccccc23)NC(=O)[C@H](Cc2ccc(O)cc2)NC(=O)[C@H](CCCCN)NC(=O)[C@H](C(C)C)NC(=O)[C@H](Cc2c[nH]c3ccccc23)NC(=O)[C@H](Cc2ccc(O)cc2)NC(=O)[C@H](CCCCN)NC(=O)[C@H](CC(=O)O)NC(=O)[C@@H](NC(=O)[C@H](CCSC)NC(C)=O)CSSC[C@@H](C(=O)NCC(=O)N[C@@H](CO)C(=O)NCC(=O)N[C@@H](CO)C(=O)N[C@@H](CC(=O)O)C(=O)N[C@@H](Cc2ccc(O)cc2)C(=O)N[C@@H](CCCCN)C(=O)N[C@@H](CC(=O)O)C(=O)N[C@@H](CC(=O)O)C(=O)N[C@@H](CC(=O)O)C(=O)N[C@@H](CC(=O)O)C(=O)N[C@@H](CCCCN)C(N)=O)NC(=O)[C@H](CCCNC(=N)N)NC(=O)[C@H](Cc2c[nH]c3ccccc23)NC(=O)[C@H](C)NC1=O [4.21] | 0.773 | 0.509 | 0.411 |  |
| CSCC[C@H](NC(C)=O)C(=O)N[C@H]1CSSC[C@@H](C(=O)NCC(=O)N[C@@H](CO)C(=O)NCC(=O)N[C@@H](CO)C(=O)N[C@@H](CC(=O)O)C(=O)N[C@@H](Cc2ccc(O)cc2)C(=O)N[C@@H](CCCCN)C(=O)N[C@@H](CC(=O)O)C(=O)N[C@@H](CC(=O)O)C(=O)N[C@@H](CC(=O)O)C(=O)N[C@@H](CC(=O)O)C(=O)N[C@@H](CCCCN)C(N)=O)NC(=O)[C@H](CC(=O)O)NC(=O)[C@H](CCCCN)NC(=O)[C@H](C(C)C)NC(=O)[C@H](Cc2c[nH]c3ccccc23)NC(=O)[C@H](Cc2ccccc2)NC(=O)[C@H](C(C)C)NC(=O)[C@H](Cc2c[nH]cn2)NC(=O)[C@H](CC(C)C)NC(=O)[C@H](CCCCN)NC(=O)[C@H](CCCCN)NC(=O)[C@H](Cc2c[nH]c3ccccc23)NC(=O)[C@H](Cc2ccccc2)NC1=O [4.22] | 0.002 | 0.012 | < 0.001 | sub-nanomolar |
| CSCC[C@H](NC(C)=O)C(=O)N[C@H]1CSSC[C@@H](C(=O)NCC(=O)N[C@@H](CO)C(=O)NCC(=O)N[C@@H](CO)C(=O)N[C@@H](CC(=O)O)C(=O)N[C@@H](Cc2ccc(O)cc2)C(=O)N[C@@H](CCCCN)C(=O)N[C@@H](CC(=O)O)C(=O)N[C@@H](CC(=O)O)C(=O)N[C@@H](CC(=O)O)C(=O)N[C@@H](CC(=O)O)C(=O)N[C@@H](CCCCN)C(N)=O)NC(=O)[C@H](CCCNC(=N)N)NC(=O)[C@H](CCCNC(=N)N)NC(=O)[C@H](Cc2c[nH]cn2)NC(=O)[C@H](CO)NC(=O)[C@H](CC(C)C)NC(=O)[C@H](CC(C)C)NC(=O)[C@H](Cc2ccc(O)cc2)NC(=O)[C@H](Cc2ccc(O)cc2)NC(=O)[C@H](Cc2ccc(O)cc2)NC(=O)[C@H](CC(C)C)NC(=O)[C@H](Cc2c[nH]cn2)NC(=O)[C@H](CCC(=O)O)NC1=O [4.23] | > 1 | > 1 | 0.003 |  |
| CSCC[C@H](NC(C)=O)C(=O)N[C@H]1CSSC[C@@H](C(=O)NCC(=O)N[C@@H](CO)C(=O)NCC(=O)N[C@@H](CO)C(=O)N[C@@H](CC(=O)O)C(=O)N[C@@H](Cc2ccc(O)cc2)C(=O)N[C@@H](CCCCN)C(=O)N[C@@H](CC(=O)O)C(=O)N[C@@H](CC(=O)O)C(=O)N[C@@H](CC(=O)O)C(=O)N[C@@H](CC(=O)O)C(=O)N[C@@H](CCCCN)C(N)=O)NC(=O)[C@@H]2CCCN2C(=O)[C@H](CCCNC(=N)N)NC(=O)[C@H](Cc2c[nH]c3ccccc23)NC(=O)[C@@H]2CCCN2C(=O)[C@H](CCC(=O)O)NC(=O)[C@H](Cc2c[nH]cn2)NC(=O)[C@H](Cc2c[nH]c3ccccc23)NC(=O)[C@H](Cc2ccc(O)cc2)NC(=O)[C@H](C)NC(=O)[C@H](CCCCN)NC(=O)[C@H]([C@@H](C)O)NC(=O)[C@H](Cc2ccc(O)cc2)NC1=O [4.24] | > 1 | > 1 | > 1 |  |
| CSCC[C@H](NC(C)=O)C(=O)N[C@H]1CSSC[C@@H](C(=O)NCC(=O)N[C@@H](CO)C(=O)NCC(=O)N[C@@H](CO)C(=O)N[C@@H](CC(=O)O)C(=O)N[C@@H](Cc2ccc(O)cc2)C(=O)N[C@@H](CCCCN)C(=O)N[C@@H](CC(=O)O)C(=O)N[C@@H](CC(=O)O)C(=O)N[C@@H](CC(=O)O)C(=O)N[C@@H](CC(=O)O)C(=O)N[C@@H](CCCCN)C(N)=O)NC(=O)[C@H](CCC(N)=O)NC(=O)[C@H](CCCCN)NC(=O)[C@H](Cc2ccccc2)NC(=O)[C@H](CC(C)C)NC(=O)[C@H](CC(C)C)NC(=O)[C@H](Cc2ccc(O)cc2)NC(=O)[C@H](Cc2ccc(O)cc2)NC(=O)[C@H](Cc2ccc(O)cc2)NC(=O)[C@H](CC(C)C)NC(=O)[C@H](Cc2c[nH]cn2)NC(=O)[C@H](CCCCN)NC(=O)[C@H](CC(N)=O)NC1=O [4.25] | > 1 | > 1 | 0.003 |  |
